From ChEMBL document CHEMBL3871265, “The therapeutic journey of pyridazinone” (Eur J Med Chem, 2016)
pIC50: −log10 of the molar value. Values belong to the molecule of their own block, whether it stands above or below them.

What was measured:
[1] = Antiplatelet activity in human washed platelets assessed as reduction in thrombin-induced platelet aggregation preincubated for 5 mins followed by thrombin induction measured after 5 mins by dual channel aggregometric analysis; assay type: functional, cell-based
[2] = Antiinflammatory activity in human HL60 cells assessed as inhibition of LPS-induced IL-1beta production; assay type: functional, cell-based; settings: HL-60
[3] = Cytotoxicity against human SMMC7721 cells assessed as cell growth inhibition after 72 hrs in presence of 5% CO2 by MTS assay; assay type: functional; settings: SMMC-7721, 72 h
[4] = Cytotoxicity against human Bel7402 cells assessed as cell growth inhibition after 72 hrs in presence of 5% CO2 by MTS assay; assay type: functional; settings: Bel-7402, 72 h
[5] = Cytotoxicity against human QGY7703 cells assessed as cell growth inhibition after 72 hrs in presence of 5% CO2 by MTS assay; assay type: functional; settings: QGY-7703, 72 h
[6] = molecular target: T1, Adrenergic receptor alpha-1 (Rattus norvegicus, UniProt P15823+P23944+P43140); test: Displacement of [3H]prazosin from alpha1-adrenergic receptor in rat cerebral cortex membranes; assay type: cell membranes, Membrane
T1 sequence (P15823 whole entry): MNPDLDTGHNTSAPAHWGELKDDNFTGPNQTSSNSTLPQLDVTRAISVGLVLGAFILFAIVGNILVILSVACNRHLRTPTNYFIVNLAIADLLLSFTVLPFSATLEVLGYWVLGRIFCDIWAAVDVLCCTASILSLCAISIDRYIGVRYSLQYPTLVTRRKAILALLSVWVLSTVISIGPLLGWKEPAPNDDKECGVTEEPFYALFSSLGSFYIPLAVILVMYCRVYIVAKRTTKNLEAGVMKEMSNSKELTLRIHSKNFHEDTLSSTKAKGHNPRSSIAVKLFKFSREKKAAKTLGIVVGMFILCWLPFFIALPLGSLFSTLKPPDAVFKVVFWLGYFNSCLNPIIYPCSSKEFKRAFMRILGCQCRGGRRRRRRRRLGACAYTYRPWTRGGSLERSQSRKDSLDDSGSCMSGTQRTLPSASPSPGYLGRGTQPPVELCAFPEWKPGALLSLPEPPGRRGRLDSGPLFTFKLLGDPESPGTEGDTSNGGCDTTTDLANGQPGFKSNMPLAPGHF
T1 sequence (P23944 whole entry): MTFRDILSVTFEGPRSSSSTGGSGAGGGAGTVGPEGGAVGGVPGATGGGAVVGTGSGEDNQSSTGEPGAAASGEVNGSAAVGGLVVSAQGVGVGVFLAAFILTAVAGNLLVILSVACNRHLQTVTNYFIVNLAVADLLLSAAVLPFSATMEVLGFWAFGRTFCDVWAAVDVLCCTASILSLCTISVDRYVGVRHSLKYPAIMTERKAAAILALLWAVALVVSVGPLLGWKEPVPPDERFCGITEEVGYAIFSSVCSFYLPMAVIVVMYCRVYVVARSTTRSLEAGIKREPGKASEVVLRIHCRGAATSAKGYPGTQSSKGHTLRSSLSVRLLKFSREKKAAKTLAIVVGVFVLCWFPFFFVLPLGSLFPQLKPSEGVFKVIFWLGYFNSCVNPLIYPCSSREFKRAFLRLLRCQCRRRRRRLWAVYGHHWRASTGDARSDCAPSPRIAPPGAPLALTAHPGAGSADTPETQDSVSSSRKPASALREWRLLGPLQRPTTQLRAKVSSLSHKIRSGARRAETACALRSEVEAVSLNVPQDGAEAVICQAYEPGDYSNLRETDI
T1 sequence (P43140 whole entry): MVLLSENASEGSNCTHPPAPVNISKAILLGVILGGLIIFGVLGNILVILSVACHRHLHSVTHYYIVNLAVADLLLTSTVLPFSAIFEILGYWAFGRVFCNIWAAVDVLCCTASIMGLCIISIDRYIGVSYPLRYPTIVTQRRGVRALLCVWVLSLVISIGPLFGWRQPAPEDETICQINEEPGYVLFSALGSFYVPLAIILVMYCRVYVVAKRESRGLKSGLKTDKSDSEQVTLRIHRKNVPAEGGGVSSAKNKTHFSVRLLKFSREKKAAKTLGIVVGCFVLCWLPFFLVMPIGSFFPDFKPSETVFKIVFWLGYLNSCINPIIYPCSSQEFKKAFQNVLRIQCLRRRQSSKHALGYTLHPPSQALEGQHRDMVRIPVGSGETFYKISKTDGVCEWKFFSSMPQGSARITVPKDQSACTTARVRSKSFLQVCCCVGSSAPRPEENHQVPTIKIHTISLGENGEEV

[7] = molecular target: Adrenergic receptor alpha-1 (Rattus norvegicus) (UniProt P15823+P23944+P43140); test: Potency index, ratio of compound affinity to prazosin affinity for alpha1-adrenergic receptor in rat cerebral cortex membranes; assay type: cell membranes; settings: Membrane
Rattus norvegicus [8] = organism: Rattus norvegicus; test: Antiinflammatory activity in rat pyresis model; assay type: functional
Rattus norvegicus [9] = test: Antiinflammatory activity in rat paw edema model; assay type: functional
[10] = Agonist activity at PGI2 in human platelet-rich plasma assessed as inhibition of ADP-induced platelet aggregation
[11] = Cytotoxicity against human IMR32 cells assessed as reduction in cell viability after 72 hrs by MTT assay; assay type: functional, cell-based; settings: IMR-32, 72 h
[12] = Antiplatelet activity in human platelets assessed as reduction in thrombin-induced platelet aggregation by turbidimetric method; assay type: functional, cell-based

SMILES: O=C(/C=C/c1cc(=O)[nH]nc1-c1ccccc1)c1ccccc1
pIC50 [1]: 4.60

SMILES: CC(C)(C)c1ccc(CSc2c(-c3ccccc3)nn(C(C)(C)C)c(=O)c2F)cc1
pIC50 [1]: 4.82

SMILES: COc1ccc(-c2cc(=O)n(CC/C=C/c3ccccc3)nc2-c2ccc(OC)cc2)cc1
pIC50 [2]: 7.00

SMILES: O=c1ccc(-c2ccc(N3CCOCC3)c(C(F)(F)F)c2)n[nH]1
GI50 [3]: 28.7 nM
GI50 [4]: 469 nM
GI50 [5]: 30.2 nM

SMILES: O=C(c1ccco1)N1CCN(c2cnn(CCCCCCCN3CCN(c4ccccc4Oc4ccccc4)CC3)c(=O)c2Cl)CC1
Ki [6]: 0.052 nM
Ratio [7]: 5

SMILES: C[C@H]1C[C@@H]1Cn1ncc(-c2ccc(S(C)(=O)=O)cc2)c(-c2ccc(F)cc2)c1=O
ED50 (Rattus norvegicus [8]): 1.1 mg/kg

SMILES: CC(C)Oc1c(-c2ccc(S(C)(=O)=O)cc2)cnn(Cc2ccccc2)c1=O
ED50 (Rattus norvegicus [9]): 0.3 mg/kg

SMILES: O=C(O)COc1cccc2c1CC[C@H](Cn1nc(C(c3ccccc3)c3ccccc3)ccc1=O)C2
pIC50 [10]: 7.09

SMILES: Cc1n[nH]c(=O)c2c1c1cc(F)ccc1n2Cc1cn(C2CCCCC2)nn1
pIC50 [11]: 7.40

The next lines start with the values.

pIC50 [1]: 4.60
SMILES: COC(=O)/C(=C/c1cc(O)nnc1-c1ccccc1)C(C)=O

pIC50 [1]: 4.35
SMILES: COC(=O)C(=Cc1cc(=O)[nH]nc1-c1ccccc1)C(=O)OC

pIC50 [1]: 4.70
SMILES: CCOC(=O)C(=Cc1cc(=O)[nH]nc1-c1ccccc1)C(=O)OCC

pIC50 [12]: 5.46
SMILES: O=C(/C=C/c1cc(=O)[nH]nc1-c1ccccc1)c1ccc(Cl)cc1Cl
